For assay [1], the system named is coronavirus pseudoviruses such as 2019-nCoV. To be noted: verified in Chinese Patent Application No. CN202180001804.1; cited from earlier work.
Assay [2] has as its system SARS-CoV-2 BA.2.2 pseudovirus.
Assay [3] deals with SARS-CoV-2 Alpha pseudovirus.
For assay [4], the system named is SARS-CoV-2 BA.2.12.1 pseudovirus.
Assay [5] relates to SARS-CoV-2 BQ.1 pseudovirus.
Assay [6] deals with SARS-CoV-2 BA.2.75 pseudovirus.
In assay [7] the test system is SARS-CoV-2 Beta pseudovirus.
For assay [8], the system named is SARS-CoV-2 BA.2 pseudovirus.
For assay [9], the system named is SARS-CoV-2 Delta pseudovirus.
In assay [10] the test system is SARS-CoV-2 Lambda pseudovirus.
The subject of assay [11] is SARS-CoV-2 BA.1 pseudovirus.
For assay [12], the system named is SARS-CoV-2 BA.5 pseudovirus.
The subject of assay [13] is SARS-CoV-2 BA.3 pseudovirus.
Assay [14] deals with SARS-CoV-2 BF.7 pseudovirus.
The subject of assay [15] is SARS-CoV-2 prototype pseudovirus.
Assay [16] deals with SARS-CoV-2 BA.2.9 pseudovirus.
In assay [17] the test system is SARS-CoV-2 BA.4.6 pseudovirus.
Assay [18] relates to SARS-CoV-2 Gamma pseudovirus.
Assay [19] concerns SARS-CoV-2 XBB pseudovirus.

pIC50: −log10 of the molar value.

We go through three molecules from patent publication EP4782466A1, “FUSION PROTEIN FOR INACTIVATING CORONAVIRUS AND USE THEREOF” (priority 2023, dated 2025).

The pIC50 is −log10 of the IC50, conventionally taken in molar units. Read a low pIC50 as a large IC50.

In the case of “SLDQINVTFLDLEYEMKKLEEAIKKLEESYIDLKEL-GSG-DPEG4-K(palmitic) [EK1-palmitic]”, the “inhibitory activity against coronavirus pseudoviruses” value in [1] is “possess inhibitory activity”.
Take `CC[C@H](C)[C@H](NC(=O)[C@H](C)NC(=O)[C@H](CCC(=O)O)NC(=O)[C@H](CCC(=O)O)NC(=O)[C@H](CC(C)C)NC(=O)[C@H](CCCCN)NC(=O)[C@H](CCCCN)NC(=O)[C@H](CCSC)NC(=O)[C@H](CCC(=O)O)NC(=O)[C@H](Cc1ccc(O)cc1)NC(=O)[C@H](CCC(=O)O)NC(=O)[C@H](CC(C)C)NC(=O)[C@H](CC(=O)O)NC(=O)[C@H](CC(C)C)NC(=O)[C@H](Cc1ccccc1)NC(=O)[C@@H](NC(=O)[C@@H](NC(=O)[C@H](CC(N)=O)NC(=O)[C@@H](NC(=O)[C@H](CCC(N)=O)NC(=O)[C@H](CC(=O)O)NC(=O)[C@H](CC(C)C)NC(=O)[C@@H](N)CO)[C@@H](C)CC)C(C)C)[C@@H](C)O)C(=O)N[C@@H](CCCCN)C(=O)N[C@@H](CCCCN)C(=O)N[C@@H](CC(C)C)C(=O)N[C@@H](CCC(=O)O)C(=O)N[C@@H](CCC(=O)O)C(=O)N[C@@H](CO)C(=O)N[C@@H](Cc1ccc(O)cc1)C(=O)N[C@H](C(=O)N[C@@H](CC(=O)O)C(=O)N[C@@H](CC(C)C)C(=O)N[C@@H](CCCCN)C(=O)N[C@@H](CCC(=O)O)C(=O)N[C@@H](CC(C)C)C(=O)O)[C@@H](C)CC` [EK1]: the pIC50 in [2] is 6.79; in [3] it was 6.57; in assay [4], 6.47; in assay [5], 6.87; in assay [6], 6.48; in [7] it was 6.59. The negative-log IC50 (pIC50) in the assay on HCoV-NL63 pseudovirus was 5.97; in assay [8], 6.53; in the assay on SARS-CoV pseudovirus, 6.07; in [9], 6.82; in [10], 6.00; in [11], 7.15. The pIC50 in assay [12] is 6.25; in [13], 6.87; in assay [14] it was 6.23; in [15], 6.73; with WIV1 pseudovirus, 5.61; in assay [16], 6.70. Further, the pIC50 in assay [17] was 6.32; in the assay with Rs3367 pseudovirus it was 5.87; in assay [18] it was 6.56; in [19], 6.63.
On to “SLDQINVTFLDLEYEMKKLEEAIKKLEESYIDLKEL-GSGSG-DPEG4-C(cholesterol) [EK1-chol]”, for which the “inhibitory activity against coronavirus pseudoviruses” value in assay [1] is “possess inhibitory activity”.
